Measured values reported in the supplement of paper PMC10307832.

Key:
Test in all cases: relative viability (nuclei count vs DMSO), 5 days (fraction); higher = more cells survive
NCI-H2347 = system: NCI-H2347
How it was run: (§1)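 Lung cancer cell lines were pin-tool dosed in 1536-well plates on the day after seeding, with either a lone drug or a fixed anchor-drug dose plus five library-drug doses (not always all listed) in √10 steps. Nuclei were counted on 4× images after 5 days. Relative viability is the ratio of treated-well to vehicle-well nuclei counts, with each value a median of duplicate plates.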

NCI-H647 = system: NCI-H647
How it was run: as §1

NCI-H2126 = system: NCI-H2126
How it was run: as §1

NCI-H1915 = system: NCI-H1915
How it was run: as §1

201T = system: 201T
How it was run: as §1

ChaGo-K-1 = system: ChaGo-K-1
How it was run: as §1

NCI-H322M = system: NCI-H322M
How it was run: as §1

RERF-LC-KJ = system: RERF-LC-KJ
How it was run: as §1

EPLC-272H = system: EPLC-272H
How it was run: as §1

NCI-H1666 = system: NCI-H1666
How it was run: as §1

PC-14 = system: PC-14
How it was run: as §1

LCLC-97TM1 = system: LCLC-97TM1
How it was run: as §1

HCC-827 = system: HCC-827
How it was run: as §1

NCI-H23 = system: NCI-H23
How it was run: as §1

HCC-78 = system: HCC-78
How it was run: as §1

COR-L 105 = system: COR-L 105
How it was run: as §1

NCI-H520 = system: NCI-H520
How it was run: as §1

NCI-H522 = system: NCI-H522
How it was run: as §1

NCI-H2405 = system: NCI-H2405
How it was run: as §1

NCI-H2087 = system: NCI-H2087
How it was run: as §1

LC-2-ad = system: LC-2-ad
How it was run: as §1

H3255 = system: H3255
How it was run: as §1

NCI-H661 = system: NCI-H661
How it was run: as §1

NCI-H650 = system: NCI-H650
How it was run: as §1

Compound `Clc1ccc(Nc2nnc(Cc3ccncc3)c3ccccc23)cc1` [Vatalanib] + O=C(c1cc(Cc2n[nH]c(=O)c3ccccc23)ccc1F)N1CCN(C(=O)C2CC2)CC1 [Olaparib] (partner 8 µM) has a relative viability (NCI-H2347; first compound 0.04 µM) of 0.647, a relative viability (NCI-H2347; first compound 0.1265 µM) of 0.538 and a relative viability (NCI-H2347; first compound 0.4 µM) of 0.643. For the same compound, the relative viability (NCI-H2347; first compound 1.265 µM) was 0.623, the relative viability (NCI-H2347; first compound 4 µM) was 0.597 and the relative viability (NCI-H647; first compound 0.04 µM) was 0.612. For the same compound, the relative viability (NCI-H647; first compound 0.1265 µM) was 0.582, the relative viability (NCI-H647; first compound 0.4 µM) was 0.582 and the relative viability (NCI-H647; first compound 1.265 µM) was 0.584. It also gave a relative viability (NCI-H647; first compound 4 µM) of 0.531, a relative viability (NCI-H2126; first compound 0.04 µM) of 0.888 and a relative viability (NCI-H2126; first compound 0.1265 µM) of 0.926. The relative viability (NCI-H2126; first compound 0.4 µM) was 0.938, the relative viability (NCI-H2126; first compound 1.265 µM) was 0.85 and the relative viability (NCI-H2126; first compound 4 µM) was 0.966. It also gave a relative viability (NCI-H1915; first compound 0.04 µM) of 0.258, a relative viability (NCI-H1915; first compound 0.1265 µM) of 0.265 and a relative viability (NCI-H1915; first compound 0.4 µM) of 0.275. The relative viability (NCI-H1915; first compound 1.265 µM) was 0.233, the relative viability (NCI-H1915; first compound 4 µM) was 0.253 and the relative viability (201T; first compound 0.04 µM) was 0.833. It also gave a relative viability (201T; first compound 0.1265 µM) of 0.83, a relative viability (201T; first compound 0.4 µM) of 0.904 and a relative viability (201T; first compound 1.265 µM) of 0.842. For the same compound, the relative viability (201T; first compound 4 µM) was 0.83, the relative viability (ChaGo-K-1; first compound 0.04 µM) was 0.412 and the relative viability (ChaGo-K-1; first compound 0.1265 µM) was 0.457. It also gave a relative viability (ChaGo-K-1; first compound 0.4 µM) of 0.466, a relative viability (ChaGo-K-1; first compound 1.265 µM) of 0.42 and a relative viability (ChaGo-K-1; first compound 4 µM) of 0.433. It also gave a relative viability (NCI-H322M; first compound 0.04 µM) of 0.452, a relative viability (NCI-H322M; first compound 0.1265 µM) of 0.662 and a relative viability (NCI-H322M; first compound 0.4 µM) of 0.781. It also gave a relative viability (NCI-H322M; first compound 4 µM) of 0.778, a relative viability (RERF-LC-KJ; first compound 0.04 µM) of 0.879 and a relative viability (RERF-LC-KJ; first compound 0.1265 µM) of 1.04. The relative viability (RERF-LC-KJ; first compound 0.4 µM) was 0.913, the relative viability (RERF-LC-KJ; first compound 1.265 µM) was 0.832 and the relative viability (RERF-LC-KJ; first compound 4 µM) was 0.882. It also gave a relative viability (EPLC-272H; first compound 0.04 µM) of 0.944, a relative viability (EPLC-272H; first compound 0.1265 µM) of 0.79 and a relative viability (EPLC-272H; first compound 0.4 µM) of 1.04. For the same compound, the relative viability (EPLC-272H; first compound 1.265 µM) was 0.688, the relative viability (EPLC-272H; first compound 4 µM) was 0.86 and the relative viability (NCI-H1666; first compound 0.04 µM) was 0.72. It also gave a relative viability (NCI-H1666; first compound 0.1265 µM) of 0.832, a relative viability (NCI-H1666; first compound 0.4 µM) of 0.804 and a relative viability (NCI-H1666; first compound 1.265 µM) of 0.798. The relative viability (NCI-H1666; first compound 4 µM) was 0.752, the relative viability (PC-14; first compound 0.04 µM) was 0.192 and the relative viability (PC-14; first compound 0.1265 µM) was 0.195. It also gave a relative viability (PC-14; first compound 0.4 µM) of 0.295, a relative viability (PC-14; first compound 1.265 µM) of 0.276 and a relative viability (PC-14; first compound 4 µM) of 0.309. It also gave a relative viability (LCLC-97TM1; first compound 0.04 µM) of 0.357, a relative viability (LCLC-97TM1; first compound 0.1265 µM) of 0.375 and a relative viability (LCLC-97TM1; first compound 0.4 µM) of 0.338. It also gave a relative viability (LCLC-97TM1; first compound 1.265 µM) of 0.39, a relative viability (LCLC-97TM1; first compound 4 µM) of 0.345 and a relative viability (HCC-827; first compound 0.04 µM) of 0.56. It also gave a relative viability (HCC-827; first compound 0.1265 µM) of 0.655, a relative viability (HCC-827; first compound 1.265 µM) of 0.534 and a relative viability (HCC-827; first compound 4 µM) of 0.638. For the same compound, the relative viability (NCI-H23; first compound 0.04 µM) was 0.306, the relative viability (NCI-H23; first compound 0.1265 µM) was 0.161 and the relative viability (NCI-H23; first compound 0.4 µM) was 0.326. For the same compound, the relative viability (NCI-H23; first compound 1.265 µM) was 0.305, the relative viability (NCI-H23; first compound 4 µM) was 0.28 and the relative viability (HCC-78; first compound 0.04 µM) was 0.899. It also gave a relative viability (HCC-78; first compound 0.1265 µM) of 0.865, a relative viability (HCC-78; first compound 0.4 µM) of 0.761 and a relative viability (HCC-78; first compound 1.265 µM) of 0.823. The relative viability (HCC-78; first compound 4 µM) was 0.775, the relative viability (COR-L 105; first compound 0.04 µM) was 0.719 and the relative viability (COR-L 105; first compound 0.1265 µM) was 0.762. The relative viability (COR-L 105; first compound 0.4 µM) was 0.738, the relative viability (COR-L 105; first compound 1.265 µM) was 0.645 and the relative viability (COR-L 105; first compound 4 µM) was 0.703. It also gave a relative viability (NCI-H520; first compound 0.04 µM) of 0.392, a relative viability (NCI-H520; first compound 0.1265 µM) of 0.361 and a relative viability (NCI-H520; first compound 0.4 µM) of 0.37. It also gave a relative viability (NCI-H520; first compound 1.265 µM) of 0.283, a relative viability (NCI-H520; first compound 4 µM) of 0.34 and a relative viability (NCI-H522; first compound 0.04 µM) of 0.756. The relative viability (NCI-H522; first compound 0.1265 µM) was 0.705, the relative viability (NCI-H522; first compound 0.4 µM) was 0.746 and the relative viability (NCI-H522; first compound 1.265 µM) was 0.565. The relative viability (NCI-H522; first compound 4 µM) was 0.774, the relative viability (NCI-H2405; first compound 0.04 µM) was 0.808 and the relative viability (NCI-H2405; first compound 0.1265 µM) was 0.807. For the same compound, the relative viability (NCI-H2405; first compound 0.4 µM) was 0.957, the relative viability (NCI-H2405; first compound 4 µM) was 0.87 and the relative viability (NCI-H2087; first compound 0.04 µM) was 0.461. It also gave a relative viability (NCI-H2087; first compound 0.1265 µM) of 0.542, a relative viability (NCI-H2087; first compound 0.4 µM) of 0.682 and a relative viability (NCI-H2087; first compound 1.265 µM) of 0.519. The relative viability (NCI-H2087; first compound 4 µM) was 0.633, the relative viability (LC-2-ad; first compound 0.04 µM) was 0.661 and the relative viability (LC-2-ad; first compound 0.1265 µM) was 0.67. It also gave a relative viability (LC-2-ad; first compound 0.4 µM) of 0.686, a relative viability (LC-2-ad; first compound 1.265 µM) of 0.694 and a relative viability (LC-2-ad; first compound 4 µM) of 0.69. For the same compound, the relative viability (H3255; first compound 0.04 µM) was 0.555, the relative viability (H3255; first compound 0.1265 µM) was 0.579 and the relative viability (H3255; first compound 0.4 µM) was 0.596. For the same compound, the relative viability (H3255; first compound 1.265 µM) was 0.576, the relative viability (H3255; first compound 4 µM) was 0.543 and the relative viability (NCI-H661; first compound 0.04 µM) was 0.769. For the same compound, the relative viability (NCI-H661; first compound 0.1265 µM) was 0.757, the relative viability (NCI-H661; first compound 0.4 µM) was 0.788 and the relative viability (NCI-H661; first compound 1.265 µM) was 0.73. It also gave a relative viability (NCI-H661; first compound 4 µM) of 0.706, a relative viability (NCI-H650; first compound 0.04 µM) of 0.377 and a relative viability (NCI-H650; first compound 0.1265 µM) of 0.378. For the same compound, the relative viability (NCI-H650; first compound 0.4 µM) was 0.414, the relative viability (NCI-H650; first compound 1.265 µM) was 0.394 and the relative viability (NCI-H650; first compound 4 µM) was 0.361.
